This note sets out measurements from patent US8299048B2, “Hexahydrocyclopentyl[f]indazole sulfonamides and derivatives thereof as selective glucocorticoid receptor modulators” (Merck Sharp & Dohme Corp., priority 2008, dated 2012).

For this experiment, the target named is T1, human GR (Homo sapiens, UniProt P04150).
T1 sequence (P04150 1-777): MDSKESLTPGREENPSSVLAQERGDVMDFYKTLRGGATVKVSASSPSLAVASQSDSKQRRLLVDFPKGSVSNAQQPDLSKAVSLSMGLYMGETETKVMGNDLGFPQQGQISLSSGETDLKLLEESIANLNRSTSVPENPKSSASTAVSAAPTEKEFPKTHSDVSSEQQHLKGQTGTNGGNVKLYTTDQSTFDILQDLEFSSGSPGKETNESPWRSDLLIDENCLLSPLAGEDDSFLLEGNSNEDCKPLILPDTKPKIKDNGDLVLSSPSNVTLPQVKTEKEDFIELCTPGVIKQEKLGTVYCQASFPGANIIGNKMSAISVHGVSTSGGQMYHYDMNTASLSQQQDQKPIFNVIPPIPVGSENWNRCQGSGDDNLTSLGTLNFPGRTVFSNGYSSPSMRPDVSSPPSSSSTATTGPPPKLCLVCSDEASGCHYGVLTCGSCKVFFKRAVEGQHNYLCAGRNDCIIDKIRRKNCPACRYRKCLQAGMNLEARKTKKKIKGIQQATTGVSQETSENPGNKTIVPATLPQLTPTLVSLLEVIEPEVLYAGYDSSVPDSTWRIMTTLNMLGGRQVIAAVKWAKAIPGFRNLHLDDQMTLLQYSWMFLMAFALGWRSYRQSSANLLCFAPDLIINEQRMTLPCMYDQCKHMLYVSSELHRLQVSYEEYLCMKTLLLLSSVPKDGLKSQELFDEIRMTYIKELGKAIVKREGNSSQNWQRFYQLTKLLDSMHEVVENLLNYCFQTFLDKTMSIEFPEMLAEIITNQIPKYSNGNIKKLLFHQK
Description: Trans-Activation Modulation of Glucocorticoid Receptor (GRAMMER), MMTV-LUC reporter, agonist mode. The experiment is classed as cell-based. The arrangement: endogenous in cells. The note with it: for Emax: A549, A549 cells, maximum activity, read-out: Transactivation A549 Cells GRAMMER Emax; for EC50: A549 cells, inflection point, read-out: Transactivation A549 Cells GRAMMER IP. An excerpt:
This assay assesses the ability of test compounds to control transcription from the MMTV-LUC reporter gene in lung adenocarcinoma A549 cells or MDA-MB-453 cells, a human breast cancer cell line that naturally expresses the human GR. The assay measures induction of a modified MMTV LTR/promoter linked to the LUC reporter gene.
The routine transient assay consists of plating 7,000-25,000 cells/well of a white, clear-bottom 96-well plate. Alternatively, 384-well plates can be used at a cell concentration of 10,000/well. The media that the cells are plated in is “exponential growth medium” which consists of phenol red-free RPMI1640 containing 10% FBS, 4 mM L-glutamine, 20 mM HEPES, 10 ug/mL human insulin, and 20 ug/mL gentamicin. Incubator conditions are 37° C. and 5% CO2. The transfection is done in batch mode. The cells are trypsinized and counted to the right cell number in the proper amount of fresh media. It is then gently mixed with the FuGene6/DNA mix and plated onto the 96 or 384-well plate, all the wells receive 100 uL or 40 uL, respectively, of medium+lipid/DNA complex then incubated 37° C. overnight. The transfection cocktail consists of serum-free OptiMEM, FuGene6 reagent and DNA. The manufacturer's (Roche Biochemical) protocol for cocktail setup is as follows: The lipid to DNA ratio is approximately 2.5:1 and the incubation time is 20 min at room temperature. Sixteen to 24 hours after transfection, the cells are treated with dexamethasone to a final concentration of 10 nM as well as the compound of interest, such that final DMSO (vehicle) concentration is equal to or less than 1%. Each plate also contains samples that are treated with 10 nM dexamethasone alone, which is used as the 100% activity control. The cells are exposed to the compounds for 24 hours. After 24 hours, the cells are lysed by a Promega cell culture lysis buffer for approximately 30 min and then the luciferase activity in the extracts is assayed in the 96-well format luminometer. In 384-well format, Steady-Glo (Promega) or Steady-Lite (PerkinElmer) can be used by adding an equal volume of reagent to the media present in each well. Activity induced by 10 nM dexamethasone alone is set at 100% activity. Antagonist activity is calculated by determining the decrease in dexamethasone-induced activity in response to compound treatment relative to samples that were treated with dexamethasone alone. […] This transactivation assay can be performed in an agonist and antagonist mode to identify these different activities.

For orientation: Emax means the greatest response seen or fitted, relative to the assay's reference. For `C[C@]12Cc3cnn(-c4ccc(F)cc4)c3C=C1CC[C@@H]2CN(CC1CC1)S(=O)(=O)c1cc(C(F)(F)F)ccc1Cl` [Example 5, 2-chloro-N-(cyclopropylmethyl)-N-{[(4αR,5S)-1-(4-fluorophenyl)-4α-methyl-1,4,4α,5,6,7-hexahydrocyclopenta[f]indazol-5-yl]methyl}-5-(trifluoromethyl)benzenesulfonamide], the maximal effect (Emax) amounted to 2.9% and the EC50 was 0.421 µM.

Take `CC(=O)Nc1ccc(S(=O)(=O)N(CC2CC2)C[C@H]2CCC3=Cc4c(cnn4-c4ccc(F)cc4)C[C@@]32C)cc1` [Example 6, N-{4-[((cyclopropylmethyl){[(4αR,5S)-1-(4-fluorophenyl)-4α-methyl-1,4,4α,5,6,7-hexahydrocyclopenta[f]indazol-5-yl]methyl}amino)sulfonyl]phenyl}acetamide]: the maximum response (Emax) was 13% and the EC50 is 0.402 µM.

`Cc1nn(C)c(Cl)c1S(=O)(=O)N(CC1CC1)C[C@H]1CCC2=Cc3c(cnn3-c3ccc(F)cc3)C[C@@]21C` [Example 7]: the Emax worked out at 36.3% and the EC50 was found to be 0.351 µM.

As for `CN1CCOc2cc(S(=O)(=O)N(CC3CC3)C[C@H]3CCC4=Cc5c(cnn5-c5ccc(F)cc5)C[C@@]43C)ccc21` [Example 8, N-(cyclopropylmethyl)-N-{[(4αR,5S)-1-(4-fluorophenyl)-4α-methyl-1,4,4α,5,6,7-hexahydrocyclopenta[f]indazol-5-yl]methyl}-4-methyl-3,4-dihydro-2H-1,4-benzoxazine-7-sulfonamide], the Emax is 4.9% and the EC50 is 0.037 µM.

Regarding `CCCCCc1ccc(S(=O)(=O)N(CC2CC2)C[C@H]2CCC3=Cc4c(cnn4-c4ccc(F)cc4)C[C@@]32C)cc1` [Example 9, N-(cyclopropylmethyl)-N-{[(4αR,5S)-1-(4-fluorophenyl)-4α-methyl-1,4,4α,5,6,7-hexahydrocyclopenta[f]indazol-5-yl]methyl}-4-pentylbenzenesulfonamide], the Emax amounted to 12.7% and the EC50 is 1.13 µM.

Turning to `C[C@]12Cc3cnn(-c4ccc(F)cc4)c3C=C1CC[C@@H]2CN(CC1CC1)S(=O)(=O)c1ccc(-c2ccccc2)cc1` [Example 10, N-(cyclopropylmethyl)-N-{[(4αR,5S)-1-(4-fluorophenyl)-4α-methyl-1,4,4α,5,6,7-hexahydrocyclopenta[f]indazol-5-yl]methyl}biphenyl-4-sulfonamide], the Emax was 12.3% and the EC50 came to 0.615 µM.

With `Cc1noc(C)c1S(=O)(=O)N(CC1CC1)C[C@H]1CCC2=Cc3c(cnn3-c3ccc(F)cc3)C[C@@]21C` [Example 11, N-(cyclopropylmethyl)-N-{[(4αR,5S)-1-(4-fluorophenyl)-4α-methyl-1,4,4α,5,6,7-hexahydrocyclopenta[f]indazol-5-yl]methyl}-3,5-dimethylisoxazole-4-sulfonamide], the Emax was 66% and the EC50 was determined as 0.235 µM.

As to `CCCS(=O)(=O)N(CCOC)C[C@H]1CCC2=Cc3c(cnn3-c3ccc(F)cc3)C[C@@]21C` [Example 95, N-{[(4αR,5S)-1-(4-fluorophenyl)-4α-methyl-1,4,4α,5,6,7-hexahydrocyclopenta[f]indazol-5-yl]methyl}-N-(2-methoxyethyl)propane-1-sulfonamide], the maximum response (Emax) is 70.4% and the EC50 was found to be 0.559 µM.

Regarding `COCCN(C[C@H]1CCC2=Cc3c(cnn3-c3ccc(F)cc3)C[C@@]21C)S(C)(=O)=O` [Example 96, N-{[(4αR,5S)-1-(4-fluorophenyl)-4α-methyl-1,4,4α,5,6,7-hexahydrocyclopenta[f]indazol-5-yl]methyl}-N-(2-methoxyethyl)methanesulfonamide], the maximal response (Emax) stood at 65.7% and the EC50 was 0.152 µM.

For the compound `COCCN(C[C@H]1CCC2=Cc3c(cnn3-c3ccc(F)cc3)C[C@@]21C)S(=O)(=O)CC(F)(F)F` [Example 97, 2,2,2-trifluoro-N-{[(4αR,5S)-1-(4-fluorophenyl)-4α-methyl-1,4,4α,5,6,7-hexahydrocyclopenta[f]indazol-5-yl]methyl}-N-(2-methoxyethyl)ethanesulfonamide], the maximal response (Emax) came to 83.8% and the EC50 was 0.0489 µM.
